Assay results: US20250092056A1, “URACIL DERIVATIVES HAVING VIRUS REPLICATION INHIBITORY ACTIVITY AND PHARMACEUTICAL COMPOSITION COMPRISING THE SAME” (Shionogi & Co., Ltd., priority 2022, published 2025)
Read-outs that look alike come from different tables or passages of the source.

Key:
[1] = tested on: SARS-CoV-2; assay: Cytopathic effect (CPE) suppression effect confirmation test using HEK293T/ACE2-TMPRSS2 cells; assay type: cell-based; settings: Severe acute respiratory syndrome coronavirus 2, HEK-293T
[2] = molecular target: Recombinant SARS-CoV-2 3CL Protease (Severe acute respiratory syndrome coronavirus 2 (2019-nCoV) (SARS-CoV-2), UniProt P0DTD1); assay: biochemical; assay type: biochemical; settings: 50% SARS-CoV-2 3CL protease inhibitory concentration; read-out: IC50
[3] = 72 h, read-out: EC50 (50% SARS-CoV-2 infected cell death inhibitory concentration), class, HEK293T/ACE2-TMPRSS2 cells, CPE suppression, CellTiter-Glo 2.0 after 3 days culture
[4] = 50% SARS-CoV-2 infected cell death inhibitory concentration, HEK293T/ACE2-TMPRSS2 cells, read-out: EC50
[5] = 72 h, read-out: EC50 (50% SARS-CoV-2 infected cell death inhibitory concentration), HEK293T/ACE2-TMPRSS2 cells, CPE suppression, CellTiter-Glo 2.0 after 3 days culture
[6] = 72 h, HEK293T/ACE2-TMPRSS2 cells, CPE suppression, CellTiter-Glo 2.0 after 3 days culture, read-out: EC50 (50% SARS-CoV-2 infected cell death inhibitory concentration), class

| SMILES | EC50 [1, 3] [nM] | IC50 [2] [nM] | EC50 [1, 4] [nM] | EC50 [1, 5] [nM] | EC50 [1, 6] [nM] |
| --- | --- | --- | --- | --- | --- |
| Cc1cncc(-n2c(=O)c(Cc3cc(F)c(F)c(F)c3)c(N3CCC4(CCC(O)C4)C3)n(CC#N)c2=O)c1 (racemic) [Compound I-110] | < 100 | < 10 | – | – | – |
| Cc1cncc(-n2c(=O)c(Cc3cc(F)c(F)c(F)c3)c(N3CCC(C(F)(F)F)C3)n(CC#N)c2=O)c1 (racemic) [Compound I-113] | < 100 | < 10 | – | – | – |
| Cc1cncc(-n2c(=O)c(Cc3cc(F)c(F)c(F)c3)c(N3CCC(C)(F)C3)n(CC#N)c2=O)c1 (racemic) [Compound I-115] | < 100 | < 10 | – | – | – |
| N#CCn1c(N2Cc3ccccc3C2)c(Cc2cc(F)c(F)c(F)c2)c(=O)n(C2CCNC(=O)C2)c1=O (racemic) [Compound I-155] | 1000 to 5000 | > 100 | – | – | – |
| N#CCn1c(N2C[C@@H]3CC[C@H]2C3)c(-c2ccc(F)c(Cl)c2)c(=O)n(-c2cncc(Cl)c2)c1=O (racemic) [Compound I-267] | – | < 10 | < 100 | – | – |
| Cc1cncc(N2C(=O)N(CC#N)CC3(COc4ccc(Cl)cc43)C2=O)c1 (racemic) [Compound I-282] | – | 2800 | < 100 | – | – |
| N#CCn1c(N2CC[C@@](O)(C(F)F)C2)c(-c2ccc(F)c(Cl)c2)c(=O)n(-c2cncc(Cl)c2)c1=O (single isomer, unassigned) [Compound I-238] | – | 0.97 | – | 4.62 | – |
| N#CCn1c(N2CC[C@](O)(C(F)F)C2)c(-c2ccc(F)c(Cl)c2)c(=O)n(-c2cncc(Cl)c2)c1=O (single isomer, unassigned) [Compound I-239] | – | 0.63 | – | 3.15 | – |
| N#CCn1c(N2CC[C@@](O)(c3ccccc3)C2)c(-c2ccc(F)c(Cl)c2)c(=O)n(-c2cncc(Cl)c2)c1=O (single isomer, unassigned) [Compound I-240] | – | < 10 | < 100 | – | – |
| N#CCn1c(N2CC[C@](O)(c3ccccc3)C2)c(-c2ccc(F)c(Cl)c2)c(=O)n(-c2cncc(Cl)c2)c1=O (single isomer, unassigned) [Compound I-241] | – | < 10 | < 100 | – | – |
| C[C@@H](C#N)n1c(N2CC3(CCOC3)C2)c(-c2ccc(F)c(Cl)c2)c(=O)n(-c2cncc(Cl)c2)c1=O (single isomer, unassigned) [Compound I-262] | – | < 10 | < 100 | – | – |
| C[C@H](C#N)n1c(N2CC(C(C)(C)O)C2)c(-c2ccc(F)c(Cl)c2)c(=O)n(-c2cncc(Cl)c2)c1=O (single isomer, unassigned) [Compound I-288] | – | < 10 | < 100 | – | – |
| C[C@@]1(O)CCN(c2c(-c3ccc(F)c(Cl)c3)c(=O)n(-c3cncc(Cl)c3)c(=O)n2CC#N)C1 (single isomer, unassigned) [Compound I-294] | – | < 10 | < 100 | – | – |
| N#CCn1c(N2CC[C@@](O)(C3CC3)C2)c(-c2ccc(F)c(Cl)c2)c(=O)n(-c2cncc(Cl)c2)c1=O (single isomer, unassigned) [Compound I-356] | – | < 10 | < 100 | – | – |
| C[C@@H](C#N)n1c(N2CCC(F)(F)CC2)c(-c2ccc(F)c(Cl)c2)c(=O)n(-c2cncc(Cl)c2)c1=O (single isomer, unassigned) [Compound I-386] | – | < 10 | < 100 | – | – |
| C[C@](O)(CCc1c(-c2ccc(F)c(Cl)c2)c(=O)n(-c2cncc(Cl)c2)c(=O)n1CC#N)C(F)F (single isomer, unassigned) [Compound I-392] | – | < 10 | < 100 | – | – |
| C[C@@](O)(CCc1c(-c2ccc(F)c(Cl)c2)c(=O)n(-c2cncc(Cl)c2)c(=O)n1CC#N)C(F)F (single isomer, unassigned) [Compound I-393] | – | < 10 | < 100 | – | – |
| C[C@@H](C#N)n1c(N2CC[C@@](O)(C(F)F)C2)c(-c2ccc(F)c(F)c2)c(=O)n(-c2cncc(Cl)c2)c1=O (single isomer, unassigned) [Compound I-419] | – | < 10 | < 100 | – | – |
| C[C@H](C#N)n1c(N2CC[C@@](O)(C(F)F)C2)c(-c2ccc(F)c(Cl)c2)c(=O)n(-c2cncc(Cl)c2)c1=O (single isomer, unassigned) [Compound I-423] | – | < 10 | < 100 | – | – |
| C[C@@H](C#N)n1c(N2CC[C@@](O)(C(F)F)C2)c(-c2ccc(F)c(C#N)c2)c(=O)n(-c2cncc(Cl)c2)c1=O (single isomer, unassigned) [Compound I-427] | – | < 10 | < 100 | – | – |

| SMILES | EC50 [1, 3] [nM] | IC50 [2] [nM] | EC50 [1, 4] [nM] | EC50 [1, 5] [nM] | EC50 [1, 6] [nM] |
| --- | --- | --- | --- | --- | --- |
| C[C@@H](C#N)n1c(N2CC[C@@](O)(C(F)F)C2)c(-c2ccc(F)c(C(F)F)c2)c(=O)n(-c2cncc(Cl)c2)c1=O (single isomer, unassigned) [Compound I-428] | – | < 10 | < 100 | – | – |
| C[C@](O)(CCc1c(-c2ccc(F)c(Cl)c2)c(=O)n(-c2cncc(C#N)c2)c(=O)n1CC#N)C(F)F (single isomer, unassigned) [Compound I-429] | – | < 10 | < 100 | – | – |
| C[C@@](O)(CCc1c(-c2ccc(F)c(Cl)c2)c(=O)n(-c2cncc(C#N)c2)c(=O)n1CC#N)C(F)F (single isomer, unassigned) [Compound I-430] | – | < 10 | < 100 | – | – |
| C[C@@H](C#N)n1c(N2CC[C@](O)(C(F)F)C2)c(-c2ccc(F)c(Cl)c2)c(=O)n(-c2cncc(Cl)c2)c1=O (single isomer, unassigned) [Compound I-431] | – | < 10 | < 100 | – | – |
| C[C@@H](C#N)n1c(N2CC[C@@](O)(C(F)F)C2)c(-c2ccc(F)c(C(F)F)c2)c(=O)n(-c2cncc(C#N)c2)c1=O (single isomer, unassigned) [Compound I-432] | – | < 10 | < 100 | – | – |
| C[C@@H](C#N)n1c(N2CC[C@@](O)(C(F)F)C2)c(-c2ccc(F)c(Cl)c2)c(=O)n(-c2cncc(C#N)c2)c1=O (single isomer, unassigned) [Compound I-433] | – | < 10 | < 100 | – | – |
| C[C@@H](C#N)n1c(N2CC[C@](O)(C(F)F)C2)c(-c2ccc(F)c(F)c2)c(=O)n(-c2cncc(Cl)c2)c1=O (single isomer, unassigned) [Compound I-434] | – | < 10 | < 100 | – | – |
| CN1C[C@@H]2CN(c3c(Cc4cc(F)c(F)c(F)c4)c(=O)n(Cc4ncn(C)n4)c(=O)n3CC#N)C[C@@H]2C1 [Compound I-003] | 1000 to 5000 | > 100 | – | – | – |
| Cn1cnc(Cn2c(=O)c(Cc3cc(F)c(F)c(F)c3)c(-c3cc4ccccc4s3)n(CC#N)c2=O)n1 [Compound I-005] | 100 to 1000 | > 100 | – | – | – |
| Cn1cnc(Cn2c(=O)c(Cc3cc(F)c(F)c(F)c3)c(N3CCc4ccccc4C3)n(CC#N)c2=O)n1 [Compound I-006] | 100 to 1000 | > 100 | – | – | – |
| N#CCn1c(N2CC3(CCOC3)C2)c(Cc2cc(F)c(F)c(F)c2)c(=O)n(-c2cncnc2)c1=O [Compound I-007] | 100 to 1000 | > 100 | – | – | – |
| Cn1cnc(Cn2c(=O)c(Cc3cc(F)c(F)c(F)c3)c(N3Cc4ccccc4C3)n(CC#N)c2=O)n1 [Compound I-008] | 100 to 1000 | > 100 | – | – | – |
| COc1ccc(Oc2c(-c3cccc4ccccc34)c(=O)n(-c3cncc(C)c3)c(=O)n2CC#N)cc1 [Compound I-009] | 100 to 1000 | > 100 | – | – | – |
| Cc1cncc(-n2c(=O)c(Oc3cc(F)c(F)c(F)c3)c(Oc3cc(F)c(F)c(F)c3)n(CC#N)c2=O)c1 [Compound I-010] | 1000 to 5000 | > 100 | – | – | – |
| Cc1cncc(-n2c(=O)c(C(=O)c3cc(F)c(F)c(F)c3)c(-c3cc4ccccc4s3)n(CC#N)c2=O)c1 [Compound I-011] | – | 10 to 100 | – | – | < 100 |
| Cc1cncc(-n2c(=O)c(Cc3cc(F)c(F)c(F)c3)c(-c3cccc(C#N)c3)n(CC#N)c2=O)c1 [Compound I-012] | – | 10 to 100 | – | – | < 100 |
| Cc1cncc(-n2c(=O)c(Oc3ccccc3)c(N3Cc4ccccc4C3)n(CC#N)c2=O)c1 [Compound I-014] | – | 5.1 | – | 17 | – |
| Cc1cncc(-n2c(=O)c(-c3ccc(F)c(Cl)c3)c(Cl)n(CC#N)c2=O)c1 [Compound I-015] | 100 to 1000 | < 10 | – | – | – |
| Cc1cncc(-n2c(=O)c(-c3cccc4ccccc34)c(N3Cc4cn[nH]c4C3)n(CC#N)c2=O)c1 [Compound I-016] | < 100 | < 10 | – | – | – |
| Cc1cncc(-n2c(=O)c(-c3ccc(F)c(Cl)c3)c(-c3cnc4ccccc4c3)n(CC#N)c2=O)c1 [Compound I-017] | < 100 | < 10 | – | – | – |
